Experimental data published in US9187472B2 (AbbVie Inc., priority 2012, dated 2015).

What was measured:
[1] = target: NAMPT (human, recombinant, C-terminally His-tagged) (Homo sapiens, UniProt P43490); assay: Time-Resolved Fluorescence Resonance Energy Transfer (TR-FRET) Binding Assay of NAMPT; conditions: without substrates; 6.8 nM NAMPT, 200 nM probe, 3 hours equilibration
Summary of the method: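 11-pt half-log compound series; final 6.8 nM NAMPT, 200 nM OG488 nicotinamide-competitive probe, 1 nM Tb-anti-His Ab, 2% DMSO, HEPES pH 7.5/NaCl/MgCl2/DTT/glycerol buffer. 3 h RT equilibration. Em520/Em495 ratio (Ex 337 nm), control-normalized, 4-parameter fit → IC50.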

NAMPT = NAMPT (Homo sapiens, UniProt P43490); assay: TR-FRET Binding Assay of NAMPT with PRPP; conditions: with 200 μM PRPP and 2.5 mM ATP; 2 nM NAMPT, 2 nM probe, 16 hours equilibration
Summary of the method: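 TR-FRET probe-displacement binding with 2 nM NAMPT, 2 nM probe and 1 nM Tb-anti-His antibody, run in the presence of 200 μM PRPP and 2.5 mM ATP at 2% DMSO. Equilibrated 16 hours before reading so test compounds could undergo enzymatic modification.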

PC3 cells = assay: NAMPT Cell Proliferation Assay; assay type: cell-based; conditions: Homo sapiens, PC-3, 120 h, 5 days incubation, cell viability by Cell Titer Glo
Summary of the method: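 Proliferation of PC3 cells treated 5 days with a 10-fold compound series (top 10 μM) was quantified by Cell Titer Glo luminescence; IC50s were fitted from percent inhibition.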

Sequence of NAMPT (human, recombinant, C-terminally His-tagged) (P43490 whole entry): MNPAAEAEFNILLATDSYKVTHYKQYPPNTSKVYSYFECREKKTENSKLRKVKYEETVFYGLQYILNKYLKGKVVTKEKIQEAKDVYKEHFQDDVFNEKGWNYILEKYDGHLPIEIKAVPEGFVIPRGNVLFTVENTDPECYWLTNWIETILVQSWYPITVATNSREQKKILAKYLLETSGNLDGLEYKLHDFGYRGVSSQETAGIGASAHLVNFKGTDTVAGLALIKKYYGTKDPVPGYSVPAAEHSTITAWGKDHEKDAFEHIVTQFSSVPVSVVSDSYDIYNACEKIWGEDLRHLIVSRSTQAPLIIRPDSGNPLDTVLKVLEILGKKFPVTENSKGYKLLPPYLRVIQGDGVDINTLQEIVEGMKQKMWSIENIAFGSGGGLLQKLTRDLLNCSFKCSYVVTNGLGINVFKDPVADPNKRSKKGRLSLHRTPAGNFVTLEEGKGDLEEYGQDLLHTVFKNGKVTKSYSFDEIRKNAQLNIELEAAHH
Sequence of NAMPT (P43490 whole entry): as above

| SMILES | IC50 [1] | IC50 (NAMPT) | IC50 (PC3 cells) |
| --- | --- | --- | --- |
| O=C(NCc1ccc2nccn2c1)c1ccc(C2=CCN(C(=O)C3CCOC3)CC2)cc1 (stereo not drawn) [Example 100, N-(imidazo[1,2-a]pyridin-6-ylmethyl)-4-[1-(tetrahydrofuran-3-ylcarbonyl)-1,2,3,6-tetrahydropyridin-4-yl]benzamide] | 102 nM | 0.169 nM | 16.2 nM |
| COc1ccc(C(CO)NC(=O)c2ccc(NC(=O)Nc3ccc4nccn4c3)cc2)cc1 (stereo not drawn) [Example 14, N-[2-hydroxy-1-(4-methoxyphenyl)ethyl]-4-[(imidazo[1,2-a]pyridin-6-ylcarbamoyl)amino]benzamide] | 741 nM | 1.22 nM | 644 nM |
| O=C(NCc1ccn2ccnc2c1)Nc1ccc(C2CN(C(=O)C3CCOCC3)C2)cc1 [Example 460, 1-(imidazo[1,2-a]pyridin-7-ylmethyl)-3-{4-[1-(tetrahydro-2H-pyran-4-ylcarbonyl)azetidin-3-yl]phenyl}urea] | 569 nM | 0.307 nM | 50.9 nM |
| CC(C)C(=O)NC1(c2ccc(C(=O)NCc3ccn4ccnc4c3)s2)COC1 [Example 324, N-(imidazo[1,2-a]pyridin-7-ylmethyl)-5-{3-[(2-methylpropanoyl)amino]oxetan-3-yl}thiophene-2-carboxamide] | 981 nM | 0.752 nM | 54.7 nM |
| COCCNC(=O)N(CC1CCOCC1)c1ncc(C(=O)NCc2ccc3nccn3c2)s1 [Example 151, N-(imidazo[1,2-a]pyridin-6-ylmethyl)-2-{[(2-methoxyethyl)carbamoyl](tetrahydro-2H-pyran-4-ylmethyl)amino}-1,3-thiazole-5-carboxamide] | 7150 nM | 5.54 nM | 76.1 nM |
| CC(C)C(=O)N1CCC(Oc2ccc(C(=O)NCc3ccc4nccn4c3)cc2)CC1 [Example 159, N-(imidazo[1,2-a]pyridin-6-ylmethyl)-4-{[1-(2-methylpropanoyl)piperidin-4-yl]oxy}benzamide] | 2490 nM | 2.16 nM | 233 nM |
| CC[C@H](C)C(=O)N1CC[C@H](Oc2ccc(NC(=O)NCc3ccn4ccnc4c3)cc2)C1 [Example 328, 1-(imidazo[1,2-a]pyridin-7-ylmethyl)-3-[4-({(3S)-1-[(2S)-2-methylbutanoyl]pyrrolidin-3-yl]oxy)phenyl}urea] | 68 nM | 0.169 nM | 8.9 nM |
| CCCn1cc(-c2ccc(NC(=O)NCc3ccn4ccnc4c3)cc2)cn1 [Example 487, 1-(imidazo[1,2-a]pyridin-7-ylmethyl)-3-[4-(1-propyl-1H-pyrazol-4-yl)phenyl]urea] | 143 nM | 0.334 nM | 83.3 nM |
| O=C(NCc1ccn2ccnc2c1)c1ccc(O[C@H]2CCN(C(=O)[C@H]3CCOC3)C2)cc1 [Example 346, N-(imidazo[1,2-a]pyridin-7-ylmethyl)-4-({(3S)-1-[(3S)-tetrahydrofuran-3-ylcarbonyl]pyrrolidin-3-yl}oxy)benzamide] | 3110 nM | 0.548 nM | 7020 nM |
| O=C(NCc1ccn2ccnc2c1)c1ccc(C2CCN(C(=O)c3ccc(C(F)(F)F)cc3)CC2)cc1 [Example 705, N-(imidazo[1,2-a]pyridin-7-ylmethyl)-4-{1-[4-(trifluoromethyl)benzoyl]piperidin-4-yl}benzamide] | 876 nM | 1.63 nM | 95.8 nM |
| CC(C)OCC(=O)N1CCC(c2ccc(NC(=O)NCc3ccn4ccnc4c3)cc2)C1 (stereo not drawn) [Example 384, 1-(imidazo[1,2-a]pyridin-7-ylmethyl)-3-(4-{1-[(propan-2-yloxy)acetyl]pyrrolidin-3-yl}phenyl)urea] | 406 nM | 0.375 nM | 51.7 nM |
| CC(C)Cn1nccc1-c1ccc(C(=O)NCc2ccn3ccnc3c2)o1 [Example 818, N-(imidazo[1,2-a]pyridin-7-ylmethyl)-5-[1-(2-methylpropyl)-1H-pyrazol-5-yl]furan-2-carboxamide] | 1520 nM | 0.644 nM | 716 nM |
| CC(C)(C#N)Cn1cc(-c2ccc(C(=O)NCc3ccn4ccnc4c3)s2)cn1 [Example 577, 5-[1-(2-cyano-2-methylpropyl)-1H-pyrazol-4-yl]-N-(imidazo[1,2-a]pyridin-7-ylmethyl)thiophene-2-carboxamide] | 18.9 nM | 0.361 nM | 2.15 nM |
| CC(C)(O)C(=O)N1CC[C@H](Oc2ccc(C(=O)NCc3ccn4ccnc4c3)cc2)C1 [Example 348, 4-{[(3S)-1-(2-hydroxy-2-methylpropanoyl)pyrrolidin-3-yl]oxy}-N-(imidazo[1,2-a]pyridin-7-ylmethyl)benzamide] | > 10000 nM | 1.52 nM | > 10000 nM |
| CC(C)(C)OC(=O)N1CCC(c2ccc(C(=O)NCc3ccn4ncnc4c3)cc2)CC1 [Example 563, tert-butyl 4-{4-[([1,2,4]triazolo[1,5-a]pyridin-7-ylmethyl)carbamoyl]phenyl}piperidine-1-carboxylate] | 322 nM | 4.19 nM | 5140 nM |
| CC(C)CC(=O)N(Cc1ccc(C#N)cc1)c1ncc(C(=O)Nc2ccc3nccn3c2)s1 [Example 53, 2-[(4-cyanobenzyl)(3-methylbutanoyl)amino]-N-(imidazo[1,2-a]pyridin-6-yl)-1,3-thiazole-5-carboxamide] | 4450 nM | 14.4 nM | 3300 nM |
| O=C(NCc1ccn2ccnc2c1)Nc1ccc(C2CCN(C(=O)C3CCOCC3)C2)cc1 (stereo not drawn) [Example 389, 1-(imidazo[1,2-a]pyridin-7-ylmethyl)-3-{4-[1-(tetrahydro-2H-pyran-4-ylcarbonyl)pyrrolidin-3-yl]phenyl}urea] | 584 nM | 0.617 nM | 78.3 nM |
| CC(C)(C)OC(=O)N1CCC(Oc2ccc(C(=O)NCc3ccn4ccnc4c3)cc2)CC1 [Example 365, tert-butyl 4-{4-[(imidazo[1,2-a]pyridin-7-ylmethyl)carbamoyl]phenoxy}piperidine-1-carboxylate] | 1340 nM | 0.171 nM | 332 nM |
| CC(C)C(=O)N1CCC(c2ccc(NC(=O)Nc3ccc4nccn4c3)cc2)CC1 [Example 106, 1-imidazo[1,2-a]pyridin-6-yl-3-{4-[1-(2-methylpropanoyl)piperidin-4-yl]phenyl}urea] | 247 nM | 0.201 nM | 78.7 nM |

Results, then the compound that gave them:

| IC50 [1] | IC50 (NAMPT) | IC50 (PC3 cells) | SMILES |
| --- | --- | --- | --- |
| 290 nM | 0.593 nM | 14.2 nM | O=C(NCc1ccc2nccn2c1)c1ccc(C2=CCN(C(=O)CC3CCOC3)CC2)cc1 (stereo not drawn) [Example 94, N-(imidazo[1,2-a]pyridin-6-ylmethyl)-4-[1-(tetrahydrofuran-3-ylacetyl)-1,2,3,6-tetrahydropyridin-4-yl]benzamide] |
| 375 nM | 4.25 nM | 26.9 nM | COCC(C)C(=O)N1CCC(Oc2ccc(C(=O)NCc3ccc4nccn4c3)cc2)CC1 (stereo not drawn) [Example 169, N-(imidazo[1,2-a]pyridin-6-ylmethyl)-4-{[1-(3-methoxy-2-methylpropanoyl)piperidin-4-yl]oxy}benzamide] |
| 28.3 nM | 0.169 nM | 1.12 nM | CC(C)Cn1cc(-c2ccc(C(=O)NCc3ccn4ccnc4c3)s2)cn1 [Example 174, N-(imidazo[1,2-a]pyridin-7-ylmethyl)-5-[1-(2-methylpropyl)-1H-pyrazol-4-yl]thiophene-2-carboxamide] |
| 451 nM | 0.837 nM | 177 nM | CC(C)C(=O)N1CCC(O)(c2ccc(C(=O)NCc3ccn4ccnc4c3)s2)CC1 [Example 554, 5-[4-hydroxy-1-(2-methylpropanoyl)piperidin-4-yl]-N-(imidazo[1,2-a]pyridin-7-ylmethyl)thiophene-2-carboxamide] |
| 261 nM | 0.627 nM | 329 nM | CS(=O)(=O)N1CCC(c2ccc(C(=O)NCc3ccn4ccnc4c3)cc2)C1 (stereo not drawn) [Example 624, N-(imidazo[1,2-a]pyridin-7-ylmethyl)-4-[1-(methylsulfonyl)pyrrolidin-3-yl]benzamide] |
| 103 nM | 0.667 nM | 83.2 nM | O=C(CC1CCCO1)Nc1ccc(NC(=O)NCc2ccc3nccn3c2)cc1 (stereo not drawn) [Example 277, N-(4-{[(imidazo[1,2-a]pyridin-6-ylmethyl)carbamoyl]amino}phenyl)-2-(tetrahydrofuran-2-yl)acetamide] |
| 231 nM | 0.32 nM | 720 nM | CC(C)Cn1cc(-c2ccc(C(=O)NCc3ccn4ccnc4c3)cc2)cn1 [Example 315, N-(imidazo[1,2-a]pyridin-7-ylmethyl)-4-[1-(2-methylpropyl)-1H-pyrazol-4-yl]benzamide] |
| 429 nM | 0.337 nM | 738 nM | O=C(NCc1ccn2ccnc2c1)c1ccc(C2CCN(C(=O)CC3CC3)C2)cc1 (stereo not drawn) [Example 369, 4-[1-(cyclopropylacetyl)pyrrolidin-3-yl]-N-(imidazo[1,2-a]pyridin-7-ylmethyl)benzamide] |
| 168 nM | 0.236 nM | 43.9 nM | CC(C)(O)C(=O)N1CC=C(c2ccc(NC(=O)Nc3ccc4nccn4c3)cc2)CC1 [Example 29, 1-{4-[1-(2-hydroxy-2-methylpropanoyl)-1,2,3,6-tetrahydropyridin-4-yl]phenyl}-3-imidazo[1,2-a]pyridin-6-ylurea] |
